Measured values taken from ChEMBL document CHEMBL1157539, “Thousands of chemical starting points for antimalarial lead identification” (Nature, 2010).

Test system: Plasmodium falciparum
Assay: GSK_TCMDC: Inhibition of Plasmodium falciparum 3D7 in whole erythrocytes, using parasite LDH activity as an index of growth.
Assay type: functional, organism-based
Conditions: Plasmodium falciparum, 3D7

In order of rising XC50:
1. CC1(C)NC(N)=NC(=N)N1OCCCOc1c(Cl)cc(Cl)cc1Cl  0.00294 µM
2. Cc1cccc2nc(-c3cccc(-c4cccc(NC(=O)C5CC(=O)Nc6ccccc65)c4)c3)[nH]c12 (stereo unspecified)  0.0646 µM
3. Cc1nc(-c2nc(NCc3ccc4c(c3)OCO4)ncc2-c2ccsc2)sc1C  0.103 µM
4. Cc1[nH]c(C)c(-c2ccc(-c3ccc(Cl)cc3)nc2)c(=O)c1Cl  0.106 µM
5. O=C1C([N+](=O)[O-])=C(O)c2c(F)cccc21  0.149 µM
6. O=C(Nc1ccc(C(F)(F)F)cc1)c1ccc(S(=O)(=O)NCC2CCCN(CC3CCCCC3)C2)cc1 (stereo unspecified)  0.152 µM
7. CCCCCCC(C)(C)c1cc(O)c2c(c1)OC(C)(C)c1ccncc1-2  0.178 µM
8. c1ccc2c(NCCCCCCNc3ccnc4ccccc34)ccnc2c1  0.191 µM
9. Nc1nc(N)c2c(Cl)c(N(Cc3ccccc3)Cc3ccccc3)ccc2n1  0.192 µM
10. O=[N+]([O-])c1cccc(CNCC2CCN(Cc3ccc(-c4ccccc4)cc3)CC2)c1  0.248 µM
11. Cc1ccc2c(N/N=C/c3cccc([N+](=O)[O-])c3)cc(C)nc2c1  0.272 µM
12. Cc1ccc(C(=O)NC2CC2)cc1-c1ccc2c(cnn2S(=O)(=O)c2ccc(F)cc2)c1  0.289 µM
13. OC(CNC1CCCCC1)Cn1c2ccc(Br)cc2c2cc(Br)ccc21 (stereo unspecified)  0.303 µM
14. Oc1ccc2[nH]cc(C3=CCN(CCc4ccccc4)CC3)c2c1  0.313 µM
15. N=C(N)c1ccc(Oc2ccc(C(=N)N)cc2)cc1  0.317 µM
16. CC[C@H]1CN2CC[C@@H]1C[C@H]2[C@H](O)c1cc(N2CCCC(C)(C)C2)nc2ccc(OC)cc12  0.337 µM
17. COc1cc(C(=O)N2CCOC(CCN3CCc4c(c5ccccc5n4C)C3)(c3ccc(Cl)c(Cl)c3)C2)cc(OC)c1OC (stereo unspecified)  0.357 µM
18. CC(C)C[C@H](NC(=O)c1ccc(OCCN2CCOCC2)cc1)C(=O)N[C@H](/C=N/N1CCNC1=O)CCc1ccccc1  0.365 µM
19. CCOc1ccc(C=CC(=O)Nc2ccc3nc(N4CCN(C)CC4)cc(C)c3c2)cc1OC  0.398 µM
20. FC(F)(F)c1ccc2[nH]c(-c3ccc(-c4ccc(CNCC5CCCO5)cc4)cc3)nc2c1 (stereo unspecified)  0.407 µM
21. O=C(NC1CC1)c1ccc(Cn2c(SCc3cccc(Cl)c3)nc3ccccc3c2=O)cc1  0.422 µM
22. CC1(C)C=C(c2ccncc2)c2cc(Cl)ccc2O1  0.43 µM
23. CCn1c(Sc2ccc(C#N)c([N+](=O)[O-])c2)nnc1-c1cccc(Cl)c1  0.446 µM
24. Cc1cc2[nH]c(-c3ccc(C(=O)NCCCN4CCN(c5cccc(Cl)c5)CC4)cc3F)nc2cc1Cl  0.479 µM
25. CC(C)Cc1cnc2nc(N)nc(N)c2c1  0.491 µM
26. C/C=C1/CN2CC[C@H]1C[C@H]2[C@H](O)c1ccnc2ccc(O)cc12  0.491 µM
27. Cc1cccc2nc(-c3cccc(-c4ccc(NC(=O)c5ccncc5)cc4)c3)[nH]c12  0.497 µM
28. O=C(/C=C/c1ccc(Cl)c(Cl)c1)NCCCCCN1CCC(NC(=O)Nc2ccc(C(F)(F)F)cc2)C1 (stereo unspecified)  0.513 µM
29. CCOC(=O)N(C)/N=C/[C@H](CCc1ccccc1)NC(=O)[C@H](CC(C)C)NC(=O)c1cc2cccc(OC)c2o1  0.556 µM
30. CCn1c(CN2CCC(C)CC2)nc2cc(NC(=O)c3cccs3)ccc21  0.565 µM
31. CC(=O)Nc1ccc(C(=O)Nc2ccc(-c3csc(-c4nc5ccccc5[nH]4)c3)cc2)cn1  0.591 µM
32. CC(CN1CCN(C)CC1)C(=O)Nc1cccc(-c2ccc(-c3nc4cc(C(F)(F)F)ccc4[nH]3)cc2)c1 (stereo unspecified)  0.607 µM
33. COc1ccc2c(c1)ncn2-c1cc(OCc2ccncc2Br)c(C(N)=O)s1  0.609 µM
34. O=C(Nc1cccnc1)c1cc(-c2cccnc2)nc2ccc(Br)cc12  0.64 µM
35. NC1=NC(c2ccccc2)(c2ccccc2)C(=O)N1C1CCCCC1  0.661 µM
36. CCOC(=O)[C@H](Cc1cccc2ccccc12)NC(=O)[C@H](CCC(=O)OC(C)(C)C)NC(=O)c1ccc(N(C)Cc2cnc3nc(N)nc(N)c3n2)cc1  0.663 µM
37. CCCCn1c(SC(C)C)nc2c(c1=O)C1(CCCCC1)Cc1ccccc1-2  0.666 µM
38. c1cc(Nc2nccc(-c3cnn4ncccc34)n2)cc(-c2cnco2)c1  0.692 µM
39. O=C(NC(=O)c1ccccc1O)c1ccccc1O  0.704 µM
40. CC1CCN(CCNC(=O)c2ccc3c(=O)n(Cc4ccc(Cl)cc4)c(=S)[nH]c3c2)CC1  0.704 µM
41. OCCN1CCN(Cc2cccc(-c3cccc(-c4nc5cc(F)ccc5[nH]4)c3)c2)CC1  0.706 µM
42. O=C(NC1CCN(c2ccnc(Nc3ccc(F)cc3)n2)C1)c1cc2ccccc2s1 (stereo unspecified)  0.716 µM
43. NCc1cccc(-c2cccc(CNC3CCN(Cc4ccccc4)CC3)c2)c1  0.719 µM
44. CC(C)(C)c1ccc2[nH]c(-c3ccc(C(=O)NCc4cccc(C(F)(F)F)c4)cc3)nc2c1  0.733 µM
45. CC(C)[C@H](NC(=O)c1c(CN2CCC(N3CCCCC3)CC2)c(-c2ccccc2)nc2cc(O)ccc12)c1ccccc1  0.741 µM
46. O=C(N[C@H]1CCN(Cc2ccc(OCCN3CCCC3)c3ccccc23)C1)c1ccc(Cl)c(Cl)c1  0.746 µM
47. Nc1nc(N)c2c(ccc3ccccc32)n1  0.749 µM
48. Clc1ccc(OCc2ccccc2)c(Cc2ccc(-c3nc4cnccc4[nH]3)o2)c1  0.754 µM
49. COc1cccc(Nc2nc(Nc3cccc(C#N)c3)cc(-c3ccncc3)n2)c1  0.764 µM
50. O=C(NCc1cccc(F)c1)Nc1cccc(-c2ccc(-c3nc4cc(C(F)(F)F)ccc4[nH]3)cc2)c1  0.766 µM
51. CCCCCCCN1CC[C@@H](CCCc2ccnc3ccc(OCCN4CCNCC4)cc23)[C@@H](CC)C1  0.771 µM
52. Nc1nc(N)c2c(Cc3ccc(Br)cc3)cccc2n1  0.775 µM
53. Cc1cc(C2CCN(CCCCNC(=O)c3ccc(NC(=O)c4ccc(Cl)cc4)cc3)CC2)c(C)cc1OCc1ccccn1  0.801 µM
54. CS(=O)(=O)CCNCc1nc(-c2ccc3ncnc(Nc4ccc(OCc5ccccc5)c(Cl)c4)c3c2)cs1  0.802 µM
55. O=C(Cc1cccnc1)N(Cc1ccc(-c2ccc(CNCc3cccnc3)cn2)cc1)C1CCN(Cc2ccccc2)CC1  0.803 µM
56. CS(=O)(=O)NCCCNCc1ccc(-c2cccc(-c3nc4cc(F)ccc4[nH]3)c2)cc1  0.804 µM
57. CC(C)(C)c1ccc(CN2CCC(NC(=O)c3cc(-c4cccc(C(F)(F)F)c4)cs3)C2)cc1 (stereo unspecified)  0.805 µM
58. CCCCCCC(CC)c1cc(O)c2c(c1)OC(C)(C)c1ccncc1-2 (stereo unspecified)  0.808 µM
59. COc1ccc2nccc([C@@H](O)CN3CCC(NC(=O)Cc4ccc(Br)c5ccccc45)CC3)c2c1  0.82 µM
60. CC(C)(C)OC(=O)N[C@@H](CS(=O)(=O)CCNC(=N)COCc1ccccc1)C(=O)OC(C)(C)C  0.821 µM
61. CN(CCN1CCCC1)c1nc2cc(-n3cnc4cc(-c5ccc(Cl)cc5)sc4c3=O)ccc2[nH]1  0.824 µM
62. CS(=O)(=O)Nc1cccc(-c2cnc3[nH]cc(-c4ccc(C(=O)O)c(F)c4)c3c2)c1  0.834 µM
63. O=C(/C=C/c1ccc(I)cc1)NCCCCCN1CCC(c2c[nH]c3ccccc23)CC1  0.836 µM
64. NC1CCN(Cc2ccc(-c3cccc(-c4nc5ccccc5[nH]4)c3)cc2)C1 (stereo unspecified)  0.849 µM
65. O=c1cc(NCCCNCc2cc(Br)ccc2F)[nH]c2ccccc12  0.854 µM
66. COc1cccc(C2CCCN(CCCCNC(=O)c3ccc(NC(=O)c4ccc(Cl)cc4)cc3)C2)c1 (stereo unspecified)  0.864 µM
67. O=C(NC1CCN(CCc2c[nH]c3ccc(F)cc23)CC1)c1ncc(-c2ccccc2)[nH]1  0.868 µM
68. Cc1[nH]c2cc(Cl)ccc2c1C1=CCN(CCN2CCOc3c(Br)cccc3C2=O)CC1  0.873 µM
69. CC1CN(Cc2ccc(-c3ccc(-c4nc5cc(F)ccc5[nH]4)s3)cc2)CC(C)O1 (stereo unspecified)  0.876 µM
70. COc1cc(Nc2nccn3c(-c4ccsc4)cnc23)cc(OC)c1OC  0.89 µM
71. CS(=O)(=O)Cc1ccc(Nc2nccc(NC3CCN(c4nccc(C(F)(F)F)n4)CC3)n2)cc1  0.896 µM
72. Cc1cc(C(=O)N[C@H]2CCN(Cc3ccc(OCCCN(C)C)cc3)C2)ccc1Br  0.898 µM
73. COc1ccc(CN2CCCN(Cc3ccc(C(=O)Nc4ccc(Cl)cc4)cc3)CC2)cc1  0.919 µM
74. CN1CCC(NCc2ccc(-c3cccc(S(=O)(=O)NCC4CCCO4)c3)cc2)CC1 (stereo unspecified)  0.939 µM
75. Cc1cc(NC(=O)Nc2ccc3ncccc3c2)c2ccccc2n1  0.956 µM
76. CCN(CC)CCN(Cc1ccc(-c2ccc(C(F)(F)F)cc2)cc1)C(=O)Cn1cc(Cc2cnn(C)c2)c(=O)nc1/C=C/c1cccc(F)c1F  0.957 µM
77. CN1CCc2cc(NS(=O)(=O)c3ccc(-c4ccc(Cl)cc4)cc3)c(OCCCN3CCCCC3)cc2CC1  0.961 µM
78. CN(C)CCCSc1ccccc1NC(=O)C=Cc1ccccc1  0.964 µM
79. COc1ccc2ncc(F)c(CCN3CCC[C@H](CNCc4ccc5c(n4)NC(=O)CS5)C3)c2n1  0.97 µM
80. COCn1ncc2cc(-c3cccc(NC(=O)c4csc(NC(C)=O)n4)c3)ccc21  0.987 µM
81. CCCCN1CC[C@@H](CCC(O)c2ccnc3ccc(OCCC(C)C)cc23)[C@@H](CC)C1 (stereo partly specified)  0.989 µM
82. Cc1ccc(NC(=O)c2ccc3ncccc3c2)cc1OC1CCN(C(C)C)C1 (stereo unspecified)  0.991 µM
83. Cc1cccc2nc(-c3ccc(-c4ccc(CNCCCNS(C)(=O)=O)cc4)s3)[nH]c12  0.999 µM
84. COc1ccc(C2CC(=O)C3=C(C2)NC(C)=C(C(=O)OC2CCCC2)C3c2cccc(O)c2)cc1 (stereo unspecified)  1.01 µM
85. N#Cc1cccc(C(=O)N2CCOC(CCN3CCC(c4ccccc4)CC3)(c3ccc(Cl)c(Cl)c3)C2)c1 (stereo unspecified)  1.04 µM
86. O=C(NC1CCCCN(Cc2ccc3c(c2)OCCO3)C1)c1cc(-c2ccccc2F)cs1 (stereo unspecified)  1.05 µM
87. CC(C)Oc1cccc(-c2ccc(C(=O)NCC3CCCN(Cc4cccc(C(F)(F)F)c4)C3)s2)c1 (stereo unspecified)  1.08 µM
88. COc1ccc(NC(=O)CCNc2cc(C)nc(Nc3ccccc3)n2)cc1  1.1 µM
89. CC(C)c1sc(N2CCN(C)CC2)nc1C(=O)NCCc1ccc(Br)cc1  1.13 µM
90. O=c1cc(-c2ccc3ccccc3c2)[nH]c2ccccc12  1.16 µM
91. NC1=NC(c2ccccc2)(c2ccccc2)C(=O)N1CCCCc1ccccn1  1.26 µM
92. Cc1ccc(NC(=O)c2cccc(CN3CCCN(Cc4cccc(O)c4)CC3)c2)cc1  1.31 µM
93. CC(C)C[C@H](NC(=O)c1cc2ccccc2s1)C(=O)N[C@H]1CCN(Cc2ccc(I)c(OCCN3CCCC3)c2)C1  1.35 µM
94. O=C(Nc1cccc(N2CCC(NCc3cnn(-c4cccc(F)c4)c3)CC2)c1)c1ccncc1  1.39 µM
95. Cc1cccc2nc(-c3ccc(-c4cccc(CN5CCN(c6ccc(C#N)cn6)CC5)c4)s3)[nH]c12  1.42 µM
96. CSc1ccc(CN2CCC(NC(=O)c3ccc(-c4ccc(N(C)C)cc4)s3)CC2)cc1  1.5 µM
